The test system of one data set is HEK293 cells. The data set can be described thus: Cell migration scratch assay, HEK293. It counts as cell-based. The following applies: HEK293, 100 μM, 24 and 48 h. The protocol:
(§1) Cell migration in the HEK293 and the HeLa cell lines was investigated. The assay was conducted to investigate cell maintenance after being damaged. The active samples from in vitro antioxidant activity were examined. Cells were grown in a 24-well plate until 80% confluence and treated with 2f and 2j for 24 or 48 h compared to the untreated control. The cells in each well were then scratched to create a wound area across the center of the plates using a plastic 20 μL pipette tip. Cell images were taken immediately, and the scratch area was measured at 0, 24, and 48 h. During the experiment, the percentage of wound area was tracked as an indirect assessment. Compared to the control, the percentage of empty area change at each time point was quantified with a Nikon eclipse Ts2R inverted microscope.
Figure 7 A scratch assay was performed to examine the migration ability of synthesized compounds 2f and 2j at 100 μM compared with untreated control. Representative pictures of the assay induce the migration of HEK cells using quercetin as a reference. Pictures were taken at the start of the experiment (0 h) 24 and 48 h later. Pictures of representative experiments are shown, and the relative migration of cells is represented with a bar graph; means ± SD (n = 3; *: p < 0.05 and **: p < 0.001, Turkey HSD), Scale bars represent 500 μm.

Data set [1] in a line: MTT cytotoxicity assay, HACAT cells. The class given is cell-based. The following applies: human; for viability at 24 h, 100 µM: read-out: % Viability ± SD (at 100 μM) HACAT 24 h; for viability at 48 h, 100 µM: read-out: % Viability ± SD (at 100 μM) HACAT 48 h. The protocol:
HEK293, HACAT, and HeLa cells were grown in modified Eagles’ minimum essential medium (EMEM, Gibco) with 10% fetal bovine serum (FBS, Gibco), 1% of 100 U/mL streptomycin and 100 U/mL penicillin (Gibco). Cells were seeded in culture flasks and maintained in an incubator at 37 °C in a humidified atmosphere with 5% CO2. After reaching 80–90% of confluence, cells were detached by incubation with 0.25% trypsin-0.2% EDTA (Gibco) for 5 min and plated for experiments.
This study examined cell cultures of HEK293, HACAT, and HeLa cells. The cytotoxicity of the test samples was carried out by the MTT (3-(4,5-dimethylthiazol-2-yl)-2,5-diphenyltetrazolium bromide) assay. The cells were seeded in 96-well microliter plates (2.0 × 10^4 cells/well). Stock solutions of the test compounds were prepared in DMSO. After 24 h, cells were treated with different concentrations of samples and diluted with media to obtain the final desired concentration. The treated cells were then incubated at 37 °C and 5% CO2 for 24 and 48 h. After incubation, the medium was replaced with 0.05% w/v of MTT solution in PBS and further incubated for 3 h. The solution was then discarded and DMSO was added to dissolve the formed formazan crystals. Each well’s absorbance (A) was measured at 570 nm using a microplate reader (FLUOstar Omega^TM, BMG Labtech, Ortenberg, Germany). All experiments were carried out in triplicate and repeated for at least three experiments.

Data set [2] can be described thus: FRAP (ferric reducing antioxidant power) assay. The class given is biochemical. The following applies: Trolox equivalent. The source says: Three in vitro antioxidant assays (DPPH, FRAP, and ABTS) were utilized to evaluate the antioxidant property of the synthesized compounds. The DPPH (α, α-diphenyl-β-picrylhydrazyl) assay is the well-known approach to determine antioxidant activity using a stable free radical DPPH, measure the absorbance change, and calculate the absorbance change in the percentage of scavenging activity. […] For example, the ferric-tripyridyltriazine (Fe^3+-TPTZ, colorless) complex is reduced to ferrous tripyridyltriazine (Fe^2+-TPTZ) at low pH and introduces a blue color with maximum absorption at 593 nm. The change in absorbance is related to antioxidant activity. However, a significant limitation of these in vitro tests is the non-physiological measurement conditions (no enzymatic condition and no transition metal ion chelating activity); therefore, the results obtained may not reflect the antioxidant activity of the source material under the biological conditions that exist in humans and animals. The ABTS assay involves a more drastic radical that is chemically produced. The use of ABTS for antioxidant activity determination of hydrophilic and lipophilic pure compounds has attracted interest due to its solubility in organic and aqueous media and stability in a wide pH range [31].
The FRAP assay is a method for assessing antioxidant power. Briefly, the FRAP reagent was prepared from acetate buffer pH 3.6, 10 mM TPTZ solution in 40 mM HCl and 20 mM FeCl3.6 H2O in relative proportions of 10:1:1, v/v, respectively. The FRAP reagent was freshly prepared daily. A solution of 5 μL of the sample (3–300 μM, approx.) was mixed with 180 μL of the FRAP reagent in a 96-well plate. The mixture was shaken in the dark for 10 min and incubated at 37 °C for 20 min, and the absorbance was determined at 593 nm. The solution without the sample was used as a blank. All determinations were made in triplicate. Trolox was used as a standard antioxidant and plot the calibration curve between absorbance and concentration. Quercetin was applied as the reference compound. The FRAP values were calculated by comparing the absorbance change in the test sample and represented in μM of Trolox equivalent per μM of sample.

The test system of data set [3] is HeLa cells. Nature of the data set: Cell cycle analysis by flow cytometry. The following applies: 24 h, 2f, 2j, quercetin at IC50, paclitaxel 5 μM. It counts as cell-based. The protocol: The paclitaxel (5 μM) was performed as the positive control.
The treatment of HeLa cells and compounds was the same as in the apoptosis protocol. The cells were harvested for 200 μL and centrifuged at 600× g for 5 min and washed with PBS. The mixing cells were slowly added 200 μL of ice-cold 70% ethanol and incubated for at least 3 h at −20 °C. Cells were centrifuged and washed with PBS. Finally, cells were stained with 200 μL of Muse® cell cycle reagent and incubated at room temperature for 30 min in the dark. The cell was analyzed by flow cytometry (Guava Muse Cell Analyzer, Luminex, Austin, TX, USA).
(In general: A flow cytometer gives signals particle by particle.)

The subject of data set [4] is HeLa cells. The data set can be described thus: Cell migration/invasion scratch assay, HeLa. It counts as cell-based. The following applies: 100 μM, 24 h. How it is done:
as §1, with “The active samples from in vitro antioxidant activity were examined.” left out
Pictures were taken at the start of the experiment (0 h) and 24 h later. […] Scale bars represent 500 μm.

The values below come from PMC10096453, “One-Pot Synthesis and Evaluation of Antioxidative Stress and Anticancer Properties of an Active Chromone Derivative” (Molecules, 2023).

Values joined by “and” are separate entries in the source; they are usually repeats but may differ in a detail not shown here. Identical values can stand only once.

What is called viability is a read-out of living cells in per cent, often relative to untreated cells. Consider `O=C(c1ccccc1)c1c(-c2ccccc2)oc2c(O)c(O)ccc2c1=O` [2f, 3-Benzoyl-7,8-dihydroxy-2-phenyl-4H-chromen-4-one], for which, in the data set on HEK293 cells, the “Cell migration vs untreated” value is listed as “significant induction of cell migration”. Also, in data set [1], the viability at 24 h, 100 µM came out at 81.6 ± 8.46% and the viability at 48 h, 100 µM was found to be 77.1 ± 5.03%. The “FRAP593nm Value ± SD (TE)” value in data set [2] was 1.70 ± 0.138 µM Trolox/1 µM of Synthesized Compounds. In the data set on HeLa cells [3], the “Cell cycle phase arrest” value is listed as “S phase arrest”; the “Cell population in G0/G1 phase” value was found to be 41.26 ± 1.21%; the “Cell population in G2/M phase” value is given as 24.71 ± 4.02%; the “Cell population in S phase” value was 34.03% and 34.03 ± 3.81 %. Besides, in the data set with HeLa cells [4], the “Invasion of HeLa cells” value is “significantly inhibited the invasion of HeLa cells”.

Consider `O=C(Oc1ccc2c(=O)c(C(=O)c3ccccc3)c(-c3ccccc3)oc2c1O)c1ccccc1` [2j, 3-Benzoyl-8-hydroxy-4-oxo-2-phenyl-4H-chromen-7-yl benzoate], for which, in the data set with HEK293 cells, the “Cell migration vs untreated” value was “significant induction of cell migration”. Moreover, in data set [1], the viability at 24 h, 100 µM stood at 72.6 ± 5.53% and the viability at 48 h, 100 µM is 58 ± 2.63%. Also, in data set [2], the “FRAP593nm Value ± SD (TE)” value is 0.34 ± 0.078 µM Trolox/1 µM of Synthesized Compounds. For the same compound, in the data set with HeLa cells [3], the “Cell cycle phase arrest” value is recorded as “S phase arrest”; the “Cell population in G0/G1 phase” value is on record as 32.90 ± 4.05%; the “Cell population in G2/M phase” value came to 35.49 ± 4.98%; the “Cell population in S phase” value was 31.61% and 31.61 ± 0.93 %. The “Invasion of HeLa cells” value in the data set with HeLa cells [4] was “significantly inhibited the invasion of HeLa cells”.

Turning to `O=c1c(O)c(-c2ccc(O)c(O)c2)oc2cc(O)cc(O)c12` [Quercetin, quercetin, reference compound], in the data set with HEK293 cells, the “Cell migration vs untreated” value is “significant induction of cell migration”. For the same compound, in data set [1], the viability at 24 h, 100 µM came out at 85.6 ± 125% and the viability at 48 h, 100 µM turned out to be 76.8 ± 2.32%. The “FRAP593nm Value ± SD (TE)” value in data set [2] is reported as 3.35 ± 0.231 µM Trolox/1 µM of Synthesized Compounds. For the same compound, in the data set with HeLa cells [3], the “Cell cycle phase arrest” value was “S phase arrest”, the “Cell population in G0/G1 phase” value stood at 35.72 ± 2.67%, the “Cell population in G2/M phase” value was found to be 26.40 ± 0.18% and the “Cell population in S phase” value worked out at 37.88 ± 2.75 %. Further, the “Cell population in S phase” value in the data set on HeLa cells [3] (listed as quercetin) is recorded as 37.88%. For the same compound, the “Invasion of HeLa cells” value with HeLa cells [4] was “significantly inhibited the invasion of HeLa cells”.
